What was measured:
Rattus norvegicus [1] = test: Antihypertensive activity was evaluated in spontaneously hypertensive rat model with base line systolic pressure of 189 mmHg by the indirect tail-cuff method at an oral screening dose of 50 mg/kg.; type: functional, Blood
Rattus norvegicus [2] = test: Antihypertensive activity was evaluated in spontaneously hypertensive rat model with base line systolic pressure of 174 mmHg by the indirect tail-cuff method at an oral screening dose of 50 mg/Kg; type: functional, Blood

Structure (SMILES)	BP (Rattus norvegicus [1]) [mmHg]	BP (Rattus norvegicus [2]) [mmHg]
CN1C(c2ccccc2)=Nc2ccccc2CC1c1ccccc1.Cl (configuration not stated)	-56	–
N=C(N)NCCN1CCCCCCC1 [GUANETHIDINE]	–	-20

— ChEMBL document CHEMBL1122626, “(+/-)-4-Aryl-4,5-dihydro-3H-1,3-benzodiazepines. 3. 2-Phenyl and 2-amino analogues as potential antihypertensive agents” (1984)
